Experimental data reported in US8623324B2, “Luminescent dyes with a water-soluble intramolecular bridge and their biological conjugates” (AAT Bioquest Inc., priority 2010, dated 2014).

Tested on: goat anti-rabbit IgG (GAR)
Test: Protein precipitation / water solubility of dye-protein conjugates at high dye/protein ratio
Type: physicochemical
Description: FIG. 1. […] Their PBS solutions are adjusted to have the same absorption of OD=0.05 at 600 nm. The PBS solutions are excited at 600 nm, and the emissions are scanned from 620 to 800 nm.
FIG. 2. […] Their PBS solutions are adjusted to have the same absorption of OD=0.05 at 600 nm. The PBS solutions are excited at 600 nm, and the emissions are scanned from 620 to 800 nm.
FIG. 3. […] Their PBS solutions are adjusted to have the same absorption of OD=0.1 at 450 nm. The PBS solutions are excited at 460 nm, and the emissions are scanned from 470 to 650 nm.
The typical method for protein conjugation with succinimidyl esters of the invention is as follows. Variations in ratios of dye to protein, protein concentration, time, temperature, buffer composition and other variables that are well known in the art are possible that still yield useful conjugates. A solution of the protein is prepared at about 10 mg/mL in 0.1M sodium bicarbonate. The labeling reagents are dissolved in a suitable solvent such as DMF or DMSO at about 10 mg/mL. Water is a suitable solvent for many dyes of the invention. Predetermined amounts of the labeling reagents are added to the protein solutions with stiffing. A molar ratio of 10 equivalents of dye to 1 equivalent of protein is typical, though the optimal amount varies with the particular labeling reagent, the protein being labeled and the protein's concentration, and is determined empirically.

[1] = ratio of dye/protein larger than 10
[2] = ratio of dye/protein larger than 8

Structure (SMILES) | protein precipitation / water solubility of dye-protein conjugate [1] | protein precipitation / water solubility of dye-protein conjugate [2]
CC1(C)C2=[N+](CCCCCC(=O)NC(C(=O)NCCCCCC(=O)ON3C(=O)CCC3=O)CCCCNC(=O)CCCCCC3(C)/C(=C/C=C/C=C/2)N(CCCS(=O)(=O)O)c2ccc(S(=O)(=O)O)cc23)c2ccc(S(=O)(=O)[O-])cc21 (stereo not shown) [Compound 133] | causes protein to precipitate | 
CC1(C)C2=[N+](CCCCCC(=O)NC(Cc3ccc(S(=O)(=O)O)s3)C(=O)NCCCCC(C(=O)NCCCCCC(=O)ON3C(=O)CCC3=O)NC(=O)C(Cc3ccc(S(=O)(=O)[O-])s3)NC(=O)CCCCCC3(C)/C(=C/C=C/C=C/2)N(CCCS(=O)(=O)O)c2ccc(S(=O)(=O)O)cc23)c2ccc(S(=O)(=O)O)cc21 (stereo not shown) [Compound 134] | still water soluble | 
CC12CCCCCC(=O)NCCCCCCCCCCCCNC(=O)CCCCCC3(C)/C(=C/C=C/C=C/C1=[N+](CCCCCC(=O)ON1C(=O)CCC1=O)c1ccc(S(=O)(=O)O)cc12)N(CCCCCC(=O)ON1C(=O)CCC1=O)c1ccc(S(=O)(=O)O)cc13 (stereo not shown) [Compound 136] |  | causes protein to precipitate
CC12CCCCCC(=O)NCCCCCNC(=O)C(CS(=O)(=O)O)NC(=O)C(CS(=O)(=O)O)NC(=O)C(CS(=O)(=O)O)NC(=O)CCCCCC3(C)/C(=C/C=C/C=C/C1=[N+](CCCCCC(=O)ON1C(=O)CCC1=O)c1ccc(S(=O)(=O)O)cc12)N(CCCCCC(=O)ON1C(=O)CCC1=O)c1ccc(S(=O)(=O)O)cc13 (stereo not shown) [Compound 39] |  | still water soluble
